Measured values reported in patent publication US4753953A, “Pyridonecarboxylic acid derivatives and antibacterial pharmaceutical compositions thereof” (priority 1985, dated 1988).
≈ marks a conversion by molar mass, not a printed value.

How the values were obtained:
[1] = test system: Citrobacter freundii IID 976; experiment: MIC, in vitro antibacterial activity (standard strains); format: cell-based; conditions: Citrobacter freundii, IID976; 10^6 cells/ml; Gram -; read-out: MIC
[2] = test system: Morganella morganii IID 602; experiment: as above; format: cell-based; conditions: Morganella morganii, IID602; 10^6 cells/ml; Gram -; read-out: MIC
P. cepacia GIFU 518 = experiment: as above; format: cell-based; conditions: Burkholderia cepacia, GIFU518
[3] = test system: Eubacterium lentum GAI 5242; experiment: as above; format: cell-based; conditions: Eggerthella lenta, GAI5242; 10^6 cells/ml; Gram +; read-out: MIC
C. ramosum = experiment: as above; format: cell-based; conditions: Thomasclavelia ramosa; 10^6 cells/ml; Gram +; read-out: MIC
E. faecalis IID 682 = experiment: as above; format: cell-based; conditions: Enterococcus faecalis, IID682; 10^6 cells/ml; Gram +; read-out: MIC
B. fragilis 25285 = experiment: as above; format: cell-based, Bacteroides fragilis; conditions: Bacteroides fragilis, 25285; 10^6 cells/ml; Gram -; read-out: MIC
Shigella sonnei IID 969 = experiment: as above; format: cell-based; conditions: Shigella sonnei, IID969; 10^6 cells/ml; Gram -; read-out: MIC
Description: Minimal inhibitory concentrations (MICs) were determined in accordance with the method recommended by Japan Society of Chemotherapy.

S. aureus Smith = experiment: as above; format: cell-based, Staphylococcus aureus; conditions: Staphylococcus aureus; 10^6 cells/ml; Gram +; read-out: MIC
E. coli ATCC 10536 = experiment: as above; format: cell-based, Escherichia coli; conditions: Escherichia coli, ATCC10536; 10^6 cells/ml; Gram -; read-out: MIC
P. mirabilis IID 994 = experiment: as above; format: cell-based; conditions: Proteus mirabilis, IID994; 10^6 cells/ml; Gram -; read-out: MIC
[4] = test system: B. thetaiotaomicron (0661); experiment: as above; format: cell-based; conditions: Bacteroides thetaiotaomicron; 10^6 cells/ml; Gram -; read-out: MIC
F. varium KYA 8501 = experiment: as above; format: cell-based; conditions: Fusobacterium varium, KYA8501; 10^6 cells/ml; Gram -; read-out: MIC
P. aeruginosa IID 1210 = experiment: as above; format: cell-based, Pseudomonas aeruginosa; conditions: Pseudomonas aeruginosa, IID1210; 10^6 cells/ml; Gram -; read-out: MIC
[5] = test system: Bacteroides fragilis GM 7000; experiment: as above; format: cell-based; conditions: Bacteroides fragilis, GM7000; 10^6 cells/ml; Gram -; read-out: MIC
S. pyogenes IID 692 = experiment: as above; format: cell-based, Streptococcus pyogenes; conditions: Streptococcus pyogenes, IID692; 10^6 cells/ml; Gram +; read-out: MIC
B. distasonis 8503 = experiment: as above; format: cell-based; conditions: Parabacteroides distasonis, 8503; 10^6 cells/ml; Gram -; read-out: MIC
[6] = test system: Proteus vulgaris IFO 3167; experiment: as above; format: cell-based; conditions: Proteus vulgaris, IFO3167; 10^6 cells/ml; Gram -; read-out: MIC
[7] = test system: Serratia marcescens IID 618; experiment: as above; format: cell-based; conditions: Serratia marcescens, IID618; 10^6 cells/ml; Gram -; read-out: MIC
[8] = test system: Pseudomonas aeruginosa V-1; experiment: as above; format: cell-based; conditions: Pseudomonas aeruginosa, V1; 10^6 cells/ml; Gram -; read-out: MIC
[9] = test system: Klebsiella pneumoniae KY(GN)6445; experiment: as above; format: cell-based; conditions: Klebsiella pneumoniae; 10^6 cells/ml; Gram -; read-out: MIC
B. fragilis 0558 = experiment: as above; format: cell-based, Bacteroides fragilis; conditions: Bacteroides fragilis, 0558; 10^6 cells/ml; Gram -; read-out: MIC
[10] = test system: Yersinia enterocolitica IID 981; experiment: as above; format: cell-based; conditions: Yersinia enterocolitica, IID981; 10^6 cells/ml; Gram -; read-out: MIC
[11] = test system: Salmonella enteritidis IID 604; experiment: as above; format: cell-based; conditions: Salmonella enterica; 10^6 cells/ml; Gram -; read-out: MIC
S. epidermidis IID 866 = experiment: as above; format: cell-based; conditions: Staphylococcus epidermidis, IID866; 10^6 cells/ml; Gram +; read-out: MIC
[12] = test system: Peptostreptococcus anaerobius KYA 27337; experiment: as above; format: cell-based; conditions: Peptostreptococcus anaerobius, KYA27337; 10^6 cells/ml; Gram +; read-out: MIC
[13] = test system: Streptococcus pyogenes (S-8); experiment: as above; format: cell-based; conditions: Streptococcus pyogenes; 10^6 cells/ml; Gram +; read-out: MIC
[14] = test system: Staphylococcus aureus 209 P; experiment: as above; format: cell-based; conditions: Staphylococcus aureus, 209P; 10^6 cells/ml; Gram +; read-out: MIC
[15] = test system: Alcaligenes faecalis 0114002; experiment: as above; format: cell-based; conditions: Alcaligenes faecalis, 0114002; 10^6 cells/ml; Gram -; read-out: MIC
[16] = test system: Enterobacter cloacae IID 977; experiment: as above; format: cell-based; conditions: Enterobacter cloacae, IID977; 10^6 cells/ml; Gram -; read-out: MIC
C. perfringens KYA 13123 = experiment: microbe, parasite or virus in culture; format: cell-based; conditions: Clostridium perfringens, KYA13123
[17] = test system: Fusobacterium mortiferum 4249; experiment: MIC, in vitro antibacterial activity (standard strains); format: cell-based; conditions: Fusobacterium mortiferum, 4249; 10^6 cells/ml; Gram -; read-out: MIC

**Q.** Which MIC [1] does the source give for `CCn1cc(C(=O)O)c(=O)c2cc(F)c(N3C[C@@H](N)[C@@H](C)C3)c(F)c21` (relative stereo) [Example 22, 7-(cis-3-Amino-4-methyl-1-pyrrolidinyl)-1-ethyl-6,8-difluoro-1,4-dihydro-4-oxo-3-quinolinecarboxylic acid] here?
**A.** 0.05 µg/mL (≈ 0.142 µM)

**Q.** And the MIC [2]?
**A.** 0.2 µg/mL (≈ 0.569 µM)

**Q.** What about the MIC (P. cepacia GIFU 518) of the same molecule?
**A.** 0.78 µg/mL (≈ 2.22 µM)

**Q.** What about the MIC [3] of the same molecule?
**A.** 1.56 µg/mL (≈ 4.44 µM)

**Q.** And the MIC (C. ramosum)?
**A.** 6.25 µg/mL (≈ 17.8 µM)

**Q.** What about the MIC (E. faecalis IID 682) of the same molecule?
**A.** 0.78 µg/mL (≈ 2.22 µM)

**Q.** And the MIC (B. fragilis 25285)?
**A.** 1.56 µg/mL (≈ 4.44 µM)

**Q.** And the MIC (Shigella sonnei IID 969)?
**A.** 0.1 µg/mL (≈ 0.285 µM)

**Q.** And the MIC (S. aureus Smith)?
**A.** 0.2 µg/mL (≈ 0.569 µM)

**Q.** And the MIC (E. coli ATCC 10536)?
**A.** 0.05 µg/mL (≈ 0.142 µM)

**Q.** What about the MIC (P. mirabilis IID 994) of the same molecule?
**A.** 0.1 µg/mL (≈ 0.285 µM)

**Q.** And the MIC [4]?
**A.** 3.13 µg/mL (≈ 8.91 µM)

**Q.** And the MIC (F. varium KYA 8501)?
**A.** 6.25 µg/mL (≈ 17.8 µM)

**Q.** What about the MIC (P. aeruginosa IID 1210) of the same molecule?
**A.** 6.25 µg/mL (≈ 17.8 µM)

**Q.** And the MIC [5]?
**A.** 3.13 µg/mL (≈ 8.91 µM)

**Q.** And the MIC (S. pyogenes IID 692)?
**A.** 0.78 µg/mL (≈ 2.22 µM)

**Q.** And the MIC (B. distasonis 8503)?
**A.** 3.13 µg/mL (≈ 8.91 µM)

**Q.** What about the MIC [6] of the same molecule?
**A.** 0.05 µg/mL (≈ 0.142 µM)

**Q.** What about the MIC [7] of the same molecule?
**A.** 0.1 µg/mL (≈ 0.285 µM)

**Q.** And the MIC [8]?
**A.** 0.39 µg/mL (≈ 1.11 µM)

**Q.** And the MIC [9]?
**A.** 0.05 µg/mL (≈ 0.142 µM)

**Q.** What about the MIC (B. fragilis 0558) of the same molecule?
**A.** 1.56 µg/mL (≈ 4.44 µM)

**Q.** And the MIC [10]?
**A.** 0.1 µg/mL (≈ 0.285 µM)

**Q.** What about the MIC [11] of the same molecule?
**A.** 0.1 µg/mL (≈ 0.285 µM)

**Q.** And the MIC (S. epidermidis IID 866)?
**A.** 0.2 µg/mL (≈ 0.569 µM)

**Q.** And the MIC [12]?
**A.** 3.13 µg/mL (≈ 8.91 µM)

**Q.** What about the MIC [13] of the same molecule?
**A.** 0.78 µg/mL (≈ 2.22 µM)

**Q.** And the MIC [14]?
**A.** 0.1 µg/mL (≈ 0.285 µM)

**Q.** And the MIC [15]?
**A.** 1.56 µg/mL (≈ 4.44 µM)

**Q.** And the MIC [16]?
**A.** 0.1 µg/mL (≈ 0.285 µM)

**Q.** What about the MIC (C. perfringens KYA 13123) of the same molecule?
**A.** 0.78 µg/mL (≈ 2.22 µM)

**Q.** And the MIC [17]?
**A.** 1.56 µg/mL (≈ 4.44 µM)

**Q.** How did the MIC [1] turn out when `CCn1cc(C(=O)O)c(=O)c2cc(F)c(N3C[C@@H](N)[C@@H](C)C3)c(Cl)c21` (relative stereo) [Example 23, 7-(cis-3-Amino-4-methyl-1-pyrrolidinyl)-8-chloro-1-ethyl-6-fluoro-1,4-dihydro-4-oxo-3-quinolinecarboxylic acid] was run?
**A.** 0.05 µg/mL (≈ 0.136 µM)

**Q.** What about the MIC [2] of the same molecule?
**A.** 0.1 µg/mL (≈ 0.272 µM)

**Q.** What about the MIC (P. cepacia GIFU 518) of the same molecule?
**A.** 0.78 µg/mL (≈ 2.12 µM)

**Q.** And the MIC [3]?
**A.** 1.56 µg/mL (≈ 4.24 µM)

**Q.** And the MIC (C. ramosum)?
**A.** 6.25 µg/mL (≈ 17 µM)

**Q.** And the MIC (E. faecalis IID 682)?
**A.** 0.78 µg/mL (≈ 2.12 µM)

**Q.** And the MIC (B. fragilis 25285)?
**A.** 0.78 µg/mL (≈ 2.12 µM)

**Q.** And the MIC (Shigella sonnei IID 969)?
**A.** 0.05 µg/mL (≈ 0.136 µM)

**Q.** What about the MIC (S. aureus Smith) of the same molecule?
**A.** 0.2 µg/mL (≈ 0.544 µM)

**Q.** And the MIC (E. coli ATCC 10536)?
**A.** 0.05 µg/mL (≈ 0.136 µM)

**Q.** What about the MIC (P. mirabilis IID 994) of the same molecule?
**A.** 0.05 µg/mL (≈ 0.136 µM)

**Q.** What about the MIC [4] of the same molecule?
**A.** 1.56 µg/mL (≈ 4.24 µM)

**Q.** And the MIC (F. varium KYA 8501)?
**A.** 6.25 µg/mL (≈ 17 µM)

**Q.** And the MIC (P. aeruginosa IID 1210)?
**A.** 6.25 µg/mL (≈ 17 µM)

**Q.** What about the MIC [5] of the same molecule?
**A.** 0.78 µg/mL (≈ 2.12 µM)

**Q.** And the MIC (S. pyogenes IID 692)?
**A.** 0.78 µg/mL (≈ 2.12 µM)

**Q.** And the MIC (B. distasonis 8503)?
**A.** 3.13 µg/mL (≈ 8.51 µM)

**Q.** What about the MIC [6] of the same molecule?
**A.** 0.05 µg/mL (≈ 0.136 µM)

**Q.** And the MIC [7]?
**A.** 0.05 µg/mL (≈ 0.136 µM)

**Q.** And the MIC [8]?
**A.** 0.39 µg/mL (≈ 1.06 µM)

**Q.** What about the MIC [9] of the same molecule?
**A.** 0.05 µg/mL (≈ 0.136 µM)

**Q.** And the MIC (B. fragilis 0558)?
**A.** 0.78 µg/mL (≈ 2.12 µM)

**Q.** And the MIC [10]?
**A.** 0.05 µg/mL (≈ 0.136 µM)

**Q.** What about the MIC [11] of the same molecule?
**A.** 0.1 µg/mL (≈ 0.272 µM)

**Q.** What about the MIC (S. epidermidis IID 866) of the same molecule?
**A.** 0.2 µg/mL (≈ 0.544 µM)

**Q.** And the MIC [12]?
**A.** 1.56 µg/mL (≈ 4.24 µM)

**Q.** What about the MIC [13] of the same molecule?
**A.** 0.78 µg/mL (≈ 2.12 µM)

**Q.** What about the MIC [14] of the same molecule?
**A.** 0.1 µg/mL (≈ 0.272 µM)

**Q.** What about the MIC [15] of the same molecule?
**A.** 1.56 µg/mL (≈ 4.24 µM)

**Q.** What about the MIC [16] of the same molecule?
**A.** 0.1 µg/mL (≈ 0.272 µM)

**Q.** What about the MIC (C. perfringens KYA 13123) of the same molecule?
**A.** 0.78 µg/mL (≈ 2.12 µM)

**Q.** What about the MIC [17] of the same molecule?
**A.** 1.56 µg/mL (≈ 4.24 µM)
